“And” between values parts separate entries of the source, which are not always exact repeats. Identical values can stand only once.

Holding throughout (assay type): physicochemical
Data set [1] is described as follows: Particle size analysis of drug nanosuspensions by light scattering. The procedure:
Crystallization experiments were performed using an exemplary reaction processor of the type depicted in FIG. 3. The solvent phase was fed into an intensifier pump using a peristaltic pump. The water phase was placed in the inlet reservoir and gravity fed. The two streams were blended at the inlet to the intensifier pump, noting that a low level of macro-mixing will occur at this process stage.
The total flow rate through the system was controlled by the microreactor design and process pressure. By varying the flow rate through the peristaltic pump at each processing pressure, various mixing ratios of the two streams were achieved. The following solvent-to-water volume ratios were examined: 1:3, 1:4, and 1:10. Equivalently, the water concentrations in the final mixture by weight were […], respectively. A total of 250 ml were processed in each experiment.
In addition to super-saturation, the effect of process pressure, NFN concentration in the solvent stream, and the presence of a surfactant were investigated. […] The concentration of NFN in DMSO varied from 5 to 20 mg NFN/ml DMSO. To determine if a surface active agent could help control particle size, a 1% aqueous solution of Suluton (BASF) was used to replace water as the anti-solvent, the concept being that the hydrophobic group of this amphoteric molecule would interact with the crystal surface at some threshold size, forming a barrier to further transport to and/or along the surface.
To provide appropriate controls for comparison, additional crystal production experiments were conducted by mixing the NFN/DMSO solution with water in a beaker at very low shear conditions. After mixing to obtain uniformity, NFN was allowed to form crystals under quiescent conditions. Size and shape characterization studies were performed. The crystals were then suspended in a saturated solution to conduct particle size reduction experiments under high shear rates using standard Microfluidizer® technology. The purpose was to compare this size reduction process on already grown crystals (“top-down” process) with the in situ process of growing crystal to the desired size with the apparatus/system of the present disclosure (“bottom-up” process).
The particle size distribution of the nano-suspensions was measured by two different methods: • (a) Light scattering using a Horiba 910 particle size analyzer: This instrument has a wide dynamic range of between 20 nm-1000 microns. • (b) Dynamic light scattering using a Malvern NanoS particle size analyzer: This instrument has a dynamic range of 0.5 nm-6 microns
(§1) Crystallization experiments using the disclosed apparatus/system were conducted at 138 and 83 MPa (20,000 and 12,000 psi) process pressures. […] The solvents were either dimethyl sulfoxide (DMSO) or N-Methyl-2-Pyrrolidone (NMP), and the antisolvent was water (see TABLE 3). Of note, alternative solvents include methanol, ethanol, acetone, dichloromethane, octanol and isopropyl alcohol, and alternative antisolvents include hexane and heptane. The water volume flow rate was typically 3-10 times the solvent volume flow rate, resulting in supersaturation between 1.4 and 9.
For the “top down” control experiments, suspensions of micron size crystals were processed with a conventional Microfluidizer® high shear processor. These crystals had been grown under no shear conditions by pouring the solvent and antisolvent streams into a beaker and then allowing the crystals to grow without stirring the fluids.
(§2) Material characterization was performed in the same manner as described above with reference to Example 1.

Data set [2] is described as follows: Electron microscopy of particle dimensions and shape. The procedure: A Hitachi S-4800 field-emission SEM was used to examine the surface structure and shape of the drug particles and also to verify qualitatively the particle size obtained from the particle size analyzers.
as §2

Data set [3] in a line: Solubility of NFN in water/DMSO mixtures (batch, gravimetric). The note with it: for NFN solubility / % NFN precipitation from saturated DMSO solution: 20° C. On the procedure:
Water was mixed with a DMSO-NFN solution of known concentration, while maintaining miscible conditions, to obtain a super-saturation state. […] The crystals were filtered from the liquid, then dried in a vacuum oven for about 10 hours at 90° C., and weighed. The filtered liquid phase was evaporated to dryness and the mass of the solid residue determined gravimetrically. The mass balance of the NFN (total amount recovered/amount dissolved) was also determined to establish precision of the solubility limit estimate. The closure was always greater than 90 percent.
(§3) The solubility data were used to estimate super-saturation ratios and the theoretical efficiency of the process, which is defined as the percentage of the drug present in the solvent that precipitates as the solvent and antisolvent streams mix.

The nature of data set [4]: XRD percent crystallinity and crystallite size. On the procedure: The samples were analyzed using a Rigaku Ultima III diffractometer. XRD analysis was used to investigate the effect of the processing conditions on the crystalline characteristics, i.e., structure, percent of crystallinity and crystallite size of NFN.
Data set [5] is described as follows: Theoretical efficiency of solvent/antisolvent crystallization. The note with it: 138 MPa.
Text: as §3

Data set [6] is described as follows: Mass transfer study, octanol phase to water phase. The note with it: transfer from an octanol phase to a water phase. On the procedure: The interfacial area in process intensification equipment can be quantified by performing mass transfer studies. In particular, a solute is introduced into the system of interest (e.g. methanol and soybean oil) and the mass transfer rate of this solute from one phase to the other is measured. The interfacial area can then be calculated. In order to accomplish this determination, it is necessary to have an estimate of the mass transfer coefficients in the individual phases—which can be determined through bench-top experiments. Reactant systems may be processed in the disclosed apparatus/system and a measurement of inlet concentration of the solute is made. The system is run at different flow rates until the concentration at the outlet is equal to the equilibrium concentration. […] The interfacial area can then be obtained.

A short description of data set [7]: Stability of nanosuspensions. The procedure:
as §1
A surfactant was added to the antisolvent (water) in order to: (a) stabilize the nanoparticles and limit their growth, and (b) minimize agglomeration of the particles and to thereby create a stable suspension. Two non-ionic surfactants were used, Solutol® HS 15 (polyoxyethylene esters of 12-hydroxystearic acid; […]) and a hydrophobically modified inulin polymeric surfactant, INUTEK SP1 (Orafti).

[8] abbreviates: overnight, particles produced with disclosed system.
[9] abbreviates: particles produced with control method.
[10] abbreviates: 138 MPa, 5 mg NFN/ml DMSO, DMSO:water 1:4, passed twice, Horiba.
Setting [11] is: NFN nanosuspension from disclosed system, SEM.
Where [12] appears, read: Disclosed System, solvent, surfactant, pressure per Table 3.
The mark [13] stands for this setting: suspension from Disclosed System.
[14] abbreviates: Control (beaker, no shear), Solutol, SLS.

For `CCOC(=O)N1CCC(=C2c3ccc(Cl)cc3CCc3cccnc32)CC1` [Loratadine], the “median particle size” value amounted to 332 nm in data set [1] (Disclosed System, INUTEK (DMSO), DLS); 379 nm in data set [1] (Disclosed System, INUTEK (NMP), DLS); 90 nm in data set [1] (Disclosed System, Solutol (DMSO), DLS); 183 nm in data set [1] (Disclosed System, Solutol (NMP), DLS). Moreover, the particle size in data set [1] (INUTEK as surfactant) was 332-379 nm. Besides, the initial particle size result in data set [1] (Solutol as surfactant, DMSO and NMP) is listed as “about 90 nm”. The Shape entry in data set [2] (Disclosed System, INUTEK (DMSO)) is recorded as “Needle”; in data set [2] (Disclosed System, INUTEK (NMP)) it was “Needle”. Also, the results for the needle length in data set [2] (setting [8]) and in data set [2] (setting [9]) were 10-20 microns and “hundreds of microns”, respectively. Besides, the values for the needle width in data set [2] (setting [8]) and in data set [2] (setting [9]) were 0.5-2 microns and “tens of microns”, respectively.

As for `CCn1cc(C(=O)O)c(=O)c2cc(F)c(N3CCNCC3)cc21` [NFN, Norfloxacin], the NFN solubility is on record as 21.00 mg drug/g solution in data set [3] (0.00 wt % water in water/DMSO solution); 7.18 mg drug/g solution in data set [3] (9.17 wt % water in water/DMSO solution); 1.57 mg drug/g solution in data set [3] (28.04 wt % water in water/DMSO solution); 0.86 mg drug/g solution in data set [3] (47.62 wt % water in water/DMSO solution); 0.64 mg drug/g solution in data set [3] (57.69 wt % water in water/DMSO solution); 0.71 mg drug/g solution in data set [3] (73.17 wt % water in water/DMSO solution). For the same compound, the NFN solubility in data set [3] (90.19 wt % water in water/DMSO solution) turned out to be 0.00 mg drug/g solution. The “% NFN precipitation from saturated DMSO solution” value in data set [3] (0.00 wt % water) worked out at 0.00%; in data set [3] (9.17 wt % water), 43.39%; in data set [3] (47.62 wt % water), 91.43%; in data set [3] (57.69 wt % water), 92.86%; in data set [3] (73.17 wt % water) it was 89.52%; in data set [3] (90.19 wt % water), 100.00%. Besides, the “% of NFN that precipitates” value in data set [3] (50 wt % water) is given as “about 92%”. Moreover, in data set [3] (ambient temperature), the “solubility limit of NFN in DMSO” value was “about 21 mg NFN/g DMSO”. Moreover, the “reduction of NFN solubility” value in data set [3] (dilution of DMSO solution to 28 wt % water) is “over 13 times”. Besides, the median particle size result is “approximately 320 nm” in data set [1] (60 MPa, 10 mg/ml DMSO, DMSO:water 1:4, passed twice); 186 nm in data set [1] (setting [10]); “approximately 190 nm” in data set [1] (138 MPa, DMSO:water 1:4, passed twice, 5 mg NFN/g DMSO); around 340 nm in data set [1] (138 MPa, DMSO:water 1:4, passed twice, 20 mg NFN/g DMSO); “about 200 nm” in data set [1] (140 MPa, 10 mg/ml DMSO, DMSO:water 1:4, passed twice); 170-350 nm in data set [1] (NFN nanosuspensions, range over all Example 1 experiments). In addition, the median particle size is on record as 428 nm in data set [1] (control crystals after 30 passes at 207 MPa in standard Microfluidizer (top-down)), 204 nm in data set [1] (with Suluton surfactant) and 209 nm in data set [1] (without surfactant). In addition, in data set [1] (setting [10]), the “peak of particle size distribution” value is 166 nm. The needle length in data set [2] (setting [11]) is 200-300 nm. Moreover, in data set [2] (setting [11]), the needle width is reported as 70-100 nm. The particle length entry in data set [2] (crystallized in low shear environment (control)) is given as “up to 1 mm”. Moreover, the “Average Crystallite Size” value in data set [4] (As purchased) is given as 441 Å; in data set [4] (Re-crystallized (high shear)) it was 239 Å; in data set [4] (Re-crystallized (low shear)), 275 Å; in data set [4] (Re-crystallized (no shear)) it was 727 Å. Besides, the “Percent Crystallinity (±4%)” value in data set [4] (As purchased) is 84.1%; in data set [4] (Re-crystallized (high shear)), 79.7%; in data set [4] (Re-crystallized (low shear)), 78% and 77.8%; in data set [4] (Re-crystallized (no shear)) it was 85% and 85.1%. Further, the “theoretical efficiency (percentage of NFN that precipitates)” value in data set [5] (supersaturation ratio about 1.5) was 32%; in data set [5] (supersaturation ratio about 7), 85%.

The compound `CC(=O)Oc1ccccc1C(=O)O` [aspirin] came in with an interfacial transfer coefficients in data set [6] of at most 0.5 m/s.

In the case of `CC[C@H]1OC(=O)[C@H](C)[C@@H](O[C@H]2C[C@@](C)(OC)[C@@H](O)[C@H](C)O2)[C@H](C)[C@@H](O[C@@H]2O[C@H](C)C[C@H](N(C)C)[C@H]2O)[C@](C)(O)C[C@@H](C)CN(C)[C@H](C)[C@@H](O)[C@]1(C)O` [Azithromycin], the “median particle size” value in data set [1] (setting [12]) is reported as 50-100 nm. Also, in data set [2] (Disclosed System), the Shape entry was “Spheroidal”. Also, in data set [7] (in solvent and antisolvent mixture, and in water after solvent removed), the stability of nanosuspension entry is “stable”. Moreover, the Stability result in data set [7] (setting [13]) is “Stable”.

For the compound `NC(=O)N1c2ccccc2CC(=O)c2ccccc21` [Oxycarbazepine], in data set [1] (setting [14]), the “Median Particle Size (needle length)” value is 20,000 nm. Moreover, the “Median Particle Size (needle width)” value in data set [1] (setting [14]) is 5000 nm. The “median particle size” value was found to be 1200 nm in data set [1] (Control with site reduction after 25 passes, SLS); 767 nm in data set [1] (setting [12]); 1.2 microns in data set [1] (control sample after 25 passes through standard Microfluidizer processor). In data set [1] (Disclosed System), the “particles by volume in the range of 2.5-6 microns” value is recorded as “about 5%”. In data set [1] (Disclosed System, SLS), the “larger peak of bimodal particle size distribution” value was “about 1 micron”. For the same compound, in data set [1] (Disclosed System, SLS), the “smaller peak of bimodal particle size distribution” value is “about 340 nm”. For the same compound, the needle length entry in data set [1] (control conditions (beaker)) is “about 20 microns”. Further, the needle width entry in data set [1] (control conditions (beaker)) is “about 5 microns”. In data set [1] (control sample after 25 passes), the “population of particles with sizes in the range of 4-6 microns” value is on record as “about 5%”. Also, the Shape entry in data set [2] (Control) was “Needle”. Moreover, the Stability result in data set [7] (Control) is “Stable”; in data set [7] (Control with site reduction after 25 passes) it was “Stable”; in data set [7] (setting [13]) it was “Stable”; in data set [7] (suspension from Disclosed System, listed as oxycarbazepine) it was “stable”.

The values above are taken from patent publication US8367004B2, “Apparatus and methods for nanoparticle generation and process intensification of transport and reaction systems” (Microfluidics International Corporation, priority 2008, dated 2013).
